Data as given in PubChem BioAssay AID292 (DTP/NCI, 2004).
Where “and” joins values, the source holds several entries; their conditions need not be identical. Equal entries are not always repeated. Toxic doses and inconclusive results are not listed.

Tested on: B6C3F1 mice, ip Sarcoma M5076, median survival T/C
Assay: NCI In Vivo Anticancer Drug Screen. Data for tumor model Sarcoma M5076 (intraperitoneal) in B6C3F1 mice
Details: endpoint: median survival time, higher = longer survival
Summary of the method: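 Transplantable tumour in mice; compound-treated vs vehicle-treated groups. Read-out: survival. Value = treated/control ratio.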

[1] = dose: 50.0 mg/kg/injection, schedule: Q04DX004 (ip), vehicle: Klucel (hydroxypropylcellulose) (HPC)
[2] = dose: 100.0 mg/kg/injection, schedule: Q04DX004 (ip), vehicle: Klucel (hydroxypropylcellulose) (HPC)
[3] = dose: 200.0 mg/kg/injection, schedule: Q04DX004 (ip), vehicle: Klucel (hydroxypropylcellulose) (HPC)
[4] = dose: 400.0 mg/kg/injection, schedule: Q04DX004 (ip), vehicle: Klucel (hydroxypropylcellulose) (HPC)
[5] = dose: 25.0 mg/kg/injection, schedule: Q04DX004 (ip), vehicle: Klucel (hydroxypropylcellulose) (HPC)
[6] = dose: 50.0 mg/kg/injection, schedule: Q04DX004 (ip), vehicle: saline
[7] = dose: 50.0 mg/kg/injection, schedule: Q04DX004 (ip), vehicle: suspension in saline
[8] = dose: 100.0 mg/kg/injection, schedule: Q04DX004 (ip), vehicle: saline
[9] = dose: 100.0 mg/kg/injection, schedule: Q04DX004 (ip), vehicle: suspension in saline
[10] = dose: 12.5 mg/kg/injection, schedule: Q04DX004 (ip), vehicle: saline with Tween-80
[11] = dose: 12.5 mg/kg/injection, schedule: Q04DX004 (ip), vehicle: saline

Structure (SMILES): CC(=O)C1C(=O)C(=O)N(c2ccccc2C)C1=O (configuration not stated)
- T/C [1]: 104 % of control
- T/C [2]: 93 % of control
- T/C [3]: 102 % of control
- T/C [4]: 108 % of control

Structure (SMILES): O=C(Nc1cccc(O)c1)C(Cl)=C(Cl)Cl
- T/C (dose: 6.25 mg/kg/injection, schedule: Q04DX004 (ip), vehicle: other): 96 % of control
- T/C (dose: 12.5 mg/kg/injection, schedule: Q04DX004 (ip), vehicle: other): 95 % of control

Structure (SMILES): Cc1nc2ccccc2c2nnc(SCC(=O)N(Cc3ccccc3)c3ccccc3)n12
- T/C [5]: 98 % of control
- T/C [1]: 115 % of control
- T/C [2]: 114 % of control
- T/C [3]: 104 % of control
- T/C [4]: 112 % of control

Structure (SMILES): O=S(Cl)C(Cl)=C(Cl)Cl (configuration not stated)
- T/C [5]: 86 % of control

Structure (SMILES): CCN(CC)CCOC(=O)c1c(C)oc2cc3c(C(=O)OCCN(CC)CC)c(C)oc3cc12
- T/C [5]: 105 % of control
- T/C [1]: 99 % of control
- T/C [2]: 109 % of control
- T/C [3]: 104 % of control
- T/C [4]: 106 % of control

Structure (SMILES): Cc1c(-c2ccc(-c3ccccc3F)cc2)nc2ccc(F)cc2c1C(=O)O
- T/C (dose: 6.25 mg/kg/injection, schedule: Q01DX009 (ip), vehicle: water): 124 % of control
- T/C (dose: 12.5 mg/kg/injection, schedule: Q01DX009 (ip), vehicle: water): 123 % of control
- T/C (dose: 25.0 mg/kg/injection, schedule: Q01DX009 (ip), vehicle: water): 124 % of control

Structure (SMILES): Cn1c(=O)c2nncnc2n(C)c1=O
- T/C (dose: 50.0 mg/kg/injection, schedule: Q04DX004 (ip), vehicle: saline with Tween-80): 94 % of control
- T/C (dose: 100.0 mg/kg/injection, schedule: Q04DX004 (ip), vehicle: saline with Tween-80): 96 % of control
- T/C (dose: 200.0 mg/kg/injection, schedule: Q04DX004 (ip), vehicle: saline with Tween-80): 94 % of control

Structure (SMILES): N=C(N)SCc1cccc2c(=O)cc(-c3ccccc3)oc12
- T/C [6]: 98 % of control
- T/C [7]: 114 % of control
- T/C [8]: 102 % of control
- T/C [9]: 104 % of control
- T/C (dose: 144.0 mg/kg/injection, schedule: Q04DX004 (ip), vehicle: suspension in saline): 105 % of control and 112 % of control
- T/C (dose: 200.0 mg/kg/injection, schedule: Q04DX004 (ip), vehicle: saline): 106 % of control
- T/C (dose: 200.0 mg/kg/injection, schedule: Q04DX004 (ip), vehicle: suspension in saline): 104 % of control
- T/C (dose: 240.0 mg/kg/injection, schedule: Q04DX004 (ip), vehicle: suspension in saline): 101 % of control and 109 % of control
- T/C (dose: 400.0 mg/kg/injection, schedule: Q04DX004 (ip), vehicle: saline): 102 % of control
- T/C (dose: 666.67 mg/kg/injection, schedule: Q04DX004 (ip), vehicle: suspension in saline): 101 % of control
- T/C (dose: 1111.11 mg/kg/injection, schedule: Q04DX004 (ip), vehicle: suspension in saline): 100 % of control

Structure (SMILES): CC(C)CC(NC(=O)CF)C(=O)O (configuration not stated)
- T/C (dose: 1.56 mg/kg/injection, schedule: Q04DX004 (ip), vehicle: saline with Tween-80): 98 % of control
- T/C (dose: 3.12 mg/kg/injection, schedule: Q04DX004 (ip), vehicle: saline with Tween-80): 102 % of control
- T/C (dose: 6.25 mg/kg/injection, schedule: Q04DX004 (ip), vehicle: saline with Tween-80): 95 % of control
- T/C [10]: 97 % of control

Structure (SMILES): [Cl][Pt][Cl].[NH-]C(CO)C(=O)O (configuration not stated)
- T/C (dose: 12.5 mg/kg/injection, schedule: Q04DX004 (ip), vehicle: water): 97 % of control
- T/C (dose: 25.0 mg/kg/injection, schedule: Q04DX004 (ip), vehicle: water): 111 % of control
- T/C (dose: 50.0 mg/kg/injection, schedule: Q04DX004 (ip), vehicle: water): 111 % of control

Structure (SMILES): CN(C)CCNC1=C(Cl)C(=O)c2ccccc2C1=O
- T/C (dose: 1.5 mg/kg/injection, schedule: Q04DX004 (ip), vehicle: saline): 91 % of control
- T/C (dose: 3.0 mg/kg/injection, schedule: Q04DX004 (ip), vehicle: saline): 98 % of control
- T/C (dose: 6.0 mg/kg/injection, schedule: Q04DX004 (ip), vehicle: saline): 89 % of control
- T/C (dose: 12.0 mg/kg/injection, schedule: Q04DX004 (ip), vehicle: saline): 105 % of control
- T/C [11]: 106 % of control

Structure (SMILES): CCC(NC(N)=O)C(CC)NC(N)=O (configuration not stated)
- T/C [10]: 92 % of control
- T/C (dose: 25.0 mg/kg/injection, schedule: Q04DX004 (ip), vehicle: saline with Tween-80): 92 % of control

Structure (SMILES): C=C(OC)C(Nc1cc(OC)c(OC)cc1C(=O)OC1CC(O[C@@H]2C(=O)C(NC(=O)OC)=C3/C(=C\CSSSC)[C@]2(O)C#C/C=C\C#C[C@@H]3OC2OC(C)C(NOC3CC(O)C(SC)C(C)O3)C(O)C2OC2CC(OC)C(NCCC)CO2)OC(C)C1O)OC (some centres not stated)
- T/C (dose: 0.32 micrograms/kg/injection, schedule: Q04DX004 (ip), vehicle: saline + alcohol): 152 % of control
- T/C (dose: 1.28 micrograms/kg/injection, schedule: Q04DX004 (ip), vehicle: saline + alcohol): 156 % of control

Structure (SMILES): O=c1[nH]c(=O)n(C2OC(CF)C(O)C2O)cc1N1CCOCC1 (configuration not stated)
- T/C (dose: 17.5 mg/kg/injection, schedule: Q04DX004 (ip), vehicle: saline): 100 % of control
- T/C (dose: 35.0 mg/kg/injection, schedule: Q04DX004 (ip), vehicle: saline): 104 % of control
- T/C (dose: 70.0 mg/kg/injection, schedule: Q04DX004 (ip), vehicle: saline): 97 % of control
- T/C (dose: 140.0 mg/kg/injection, schedule: Q04DX004 (ip), vehicle: saline): 104 % of control
- T/C (dose: 280.0 mg/kg/injection, schedule: Q04DX004 (ip), vehicle: saline): 102 % of control

Structure (SMILES): NC(=O)c1oc([N+](=O)[O-])c(-c2ccccc2)c1-c1ccccc1
- T/C (dose: 37.5 mg/kg/injection, schedule: Q04DX004 (ip), vehicle: saline with Tween-80): 98 % of control
- T/C (dose: 75.0 mg/kg/injection, schedule: Q04DX004 (ip), vehicle: saline with Tween-80): 93 % of control
- T/C (dose: 150.0 mg/kg/injection, schedule: Q04DX004 (ip), vehicle: saline with Tween-80): 94 % of control
- T/C (dose: 300.0 mg/kg/injection, schedule: Q04DX004 (ip), vehicle: saline with Tween-80): 89 % of control

Structure (SMILES): O=C(O)CC1C(=O)OC2C3COC(=O)c4cc(O)c(O)c(O)c4-c4c(cc(O)c(O)c4O)C(=O)OC2C(OC(=O)c2cc(O)c(O)c4c2C1C(O)C(=O)O4)C(OC(=O)c1cc(O)c(O)c(O)c1)O3 (configuration not stated)
- T/C (dose: 6.25 mg/kg/injection, schedule: Q04DX004 (ip), vehicle: saline): 89 % of control
- T/C [11]: 96 % of control
- T/C (dose: 25.0 mg/kg/injection, schedule: Q04DX004 (ip), vehicle: saline): 97 % of control
- T/C (dose: 25.0 mg/kg/injection, schedule: Q04DX004 (ip), vehicle: suspension in saline): 96 % of control
- T/C [6]: 104 % of control
- T/C [7]: 97 % of control
- T/C [8]: 96 % of control
- T/C [9]: 100 % of control
